Reference: ChEMBL document CHEMBL3991601, “The target landscape of clinical kinase drugs” (Science, 2017)
The source made the active and inactive calls.

Assays:
[1] = biological target: T1, Activin receptor type-1 (Homo sapiens, UniProt Q04771)
T1 sequence (Q04771 whole entry): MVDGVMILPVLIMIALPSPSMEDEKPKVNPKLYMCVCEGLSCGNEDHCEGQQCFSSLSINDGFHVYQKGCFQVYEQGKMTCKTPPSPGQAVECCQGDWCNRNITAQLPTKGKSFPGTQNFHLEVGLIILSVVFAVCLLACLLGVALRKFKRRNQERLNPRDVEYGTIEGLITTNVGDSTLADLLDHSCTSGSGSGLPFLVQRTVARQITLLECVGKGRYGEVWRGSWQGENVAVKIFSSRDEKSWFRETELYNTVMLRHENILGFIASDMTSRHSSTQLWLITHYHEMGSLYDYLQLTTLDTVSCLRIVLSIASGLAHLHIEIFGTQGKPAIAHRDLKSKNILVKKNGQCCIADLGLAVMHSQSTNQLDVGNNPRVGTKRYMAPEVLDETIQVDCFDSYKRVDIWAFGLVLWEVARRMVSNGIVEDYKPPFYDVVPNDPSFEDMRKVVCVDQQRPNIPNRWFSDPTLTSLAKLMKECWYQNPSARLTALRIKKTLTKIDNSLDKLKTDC

[2] = biological target: Mitogen-activated protein kinase 7 (Homo sapiens, UniProt Q13164)
[3] = biological target: AP2-associated protein kinase 1 (Homo sapiens, UniProt Q2M2I8)
[4] = biological target: T2, Mitogen-activated protein kinase kinase kinase 5 (Homo sapiens, UniProt Q99683)
T2 sequence (Q99683 whole entry): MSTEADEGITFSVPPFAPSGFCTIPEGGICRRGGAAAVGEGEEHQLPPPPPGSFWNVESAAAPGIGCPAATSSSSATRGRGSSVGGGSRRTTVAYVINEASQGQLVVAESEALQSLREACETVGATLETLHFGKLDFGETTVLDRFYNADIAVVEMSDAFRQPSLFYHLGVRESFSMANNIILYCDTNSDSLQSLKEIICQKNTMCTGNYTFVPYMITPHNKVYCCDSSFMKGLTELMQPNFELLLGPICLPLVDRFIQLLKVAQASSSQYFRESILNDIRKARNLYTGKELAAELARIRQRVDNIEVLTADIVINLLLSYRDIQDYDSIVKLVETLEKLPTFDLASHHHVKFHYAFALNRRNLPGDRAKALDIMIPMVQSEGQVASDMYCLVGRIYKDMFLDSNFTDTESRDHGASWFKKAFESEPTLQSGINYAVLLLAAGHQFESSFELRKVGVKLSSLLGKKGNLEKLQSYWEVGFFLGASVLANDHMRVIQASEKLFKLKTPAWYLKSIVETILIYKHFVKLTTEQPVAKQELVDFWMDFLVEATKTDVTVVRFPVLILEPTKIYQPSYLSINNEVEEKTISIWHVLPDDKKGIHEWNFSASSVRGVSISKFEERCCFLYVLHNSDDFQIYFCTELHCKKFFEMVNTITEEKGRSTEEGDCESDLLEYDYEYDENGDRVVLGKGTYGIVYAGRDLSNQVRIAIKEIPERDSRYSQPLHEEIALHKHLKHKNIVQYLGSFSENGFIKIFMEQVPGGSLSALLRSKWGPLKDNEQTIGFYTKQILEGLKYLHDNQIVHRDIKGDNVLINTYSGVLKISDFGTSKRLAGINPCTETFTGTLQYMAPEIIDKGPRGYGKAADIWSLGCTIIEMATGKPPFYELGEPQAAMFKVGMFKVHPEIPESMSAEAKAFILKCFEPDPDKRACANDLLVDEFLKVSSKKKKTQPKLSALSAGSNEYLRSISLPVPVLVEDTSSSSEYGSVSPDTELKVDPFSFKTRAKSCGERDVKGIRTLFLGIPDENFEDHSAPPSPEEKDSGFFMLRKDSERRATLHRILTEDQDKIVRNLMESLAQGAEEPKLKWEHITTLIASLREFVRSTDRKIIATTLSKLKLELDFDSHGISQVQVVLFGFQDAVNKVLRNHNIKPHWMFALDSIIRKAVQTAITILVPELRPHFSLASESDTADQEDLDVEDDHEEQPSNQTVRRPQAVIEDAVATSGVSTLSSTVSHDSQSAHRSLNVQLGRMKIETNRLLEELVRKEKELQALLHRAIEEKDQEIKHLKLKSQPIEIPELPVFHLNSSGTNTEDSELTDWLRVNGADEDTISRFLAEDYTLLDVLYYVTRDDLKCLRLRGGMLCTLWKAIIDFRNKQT

[5] = biological target: Tyrosine-protein kinase Lyn (Homo sapiens, UniProt P07948)
[6] = biological target: ATP-dependent RNA helicase DDX3X (Homo sapiens, UniProt O00571)
[7] = biological target: G protein-coupled receptor kinase 6 (Homo sapiens, UniProt P43250)
[8] = biological target: T3, Mitogen-activated protein kinase 15 (Homo sapiens, UniProt Q8TD08)
T3 sequence (Q8TD08 whole entry): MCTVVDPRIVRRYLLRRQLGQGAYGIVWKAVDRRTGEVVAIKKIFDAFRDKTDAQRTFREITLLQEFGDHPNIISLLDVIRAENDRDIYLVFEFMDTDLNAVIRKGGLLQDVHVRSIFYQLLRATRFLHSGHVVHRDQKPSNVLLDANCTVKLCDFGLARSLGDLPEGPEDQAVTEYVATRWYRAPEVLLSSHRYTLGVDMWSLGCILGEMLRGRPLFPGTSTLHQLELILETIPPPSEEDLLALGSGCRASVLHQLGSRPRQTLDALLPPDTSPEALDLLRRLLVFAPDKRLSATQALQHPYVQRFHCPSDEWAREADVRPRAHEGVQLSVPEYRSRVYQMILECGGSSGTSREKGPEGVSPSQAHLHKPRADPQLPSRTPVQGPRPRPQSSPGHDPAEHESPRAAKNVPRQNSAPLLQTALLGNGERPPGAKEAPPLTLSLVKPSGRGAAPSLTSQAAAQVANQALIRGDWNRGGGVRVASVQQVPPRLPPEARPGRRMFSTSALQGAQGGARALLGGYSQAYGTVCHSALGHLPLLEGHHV
Note: in the data inactive means no Kd found up to 30 µM.

ATP-dependent RNA helicase DDX3X, sequence (O00571 whole entry): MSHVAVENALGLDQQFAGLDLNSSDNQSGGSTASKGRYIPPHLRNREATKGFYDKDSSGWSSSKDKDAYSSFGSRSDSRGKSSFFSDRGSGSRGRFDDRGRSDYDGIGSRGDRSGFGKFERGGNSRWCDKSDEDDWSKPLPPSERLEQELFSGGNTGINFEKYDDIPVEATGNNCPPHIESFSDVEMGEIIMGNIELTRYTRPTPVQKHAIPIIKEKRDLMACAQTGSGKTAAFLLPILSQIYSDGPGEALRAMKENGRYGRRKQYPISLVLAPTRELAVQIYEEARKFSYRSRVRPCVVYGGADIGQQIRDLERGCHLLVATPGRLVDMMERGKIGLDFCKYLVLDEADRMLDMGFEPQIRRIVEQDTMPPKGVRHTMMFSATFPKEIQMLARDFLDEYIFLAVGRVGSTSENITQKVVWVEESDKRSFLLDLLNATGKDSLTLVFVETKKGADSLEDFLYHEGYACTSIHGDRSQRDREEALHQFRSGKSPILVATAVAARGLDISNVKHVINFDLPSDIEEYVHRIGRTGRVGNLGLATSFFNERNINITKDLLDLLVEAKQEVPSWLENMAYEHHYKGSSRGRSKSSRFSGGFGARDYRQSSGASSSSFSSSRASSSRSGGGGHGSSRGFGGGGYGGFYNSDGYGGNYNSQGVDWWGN
AP2-associated protein kinase 1, sequence (Q2M2I8 whole entry): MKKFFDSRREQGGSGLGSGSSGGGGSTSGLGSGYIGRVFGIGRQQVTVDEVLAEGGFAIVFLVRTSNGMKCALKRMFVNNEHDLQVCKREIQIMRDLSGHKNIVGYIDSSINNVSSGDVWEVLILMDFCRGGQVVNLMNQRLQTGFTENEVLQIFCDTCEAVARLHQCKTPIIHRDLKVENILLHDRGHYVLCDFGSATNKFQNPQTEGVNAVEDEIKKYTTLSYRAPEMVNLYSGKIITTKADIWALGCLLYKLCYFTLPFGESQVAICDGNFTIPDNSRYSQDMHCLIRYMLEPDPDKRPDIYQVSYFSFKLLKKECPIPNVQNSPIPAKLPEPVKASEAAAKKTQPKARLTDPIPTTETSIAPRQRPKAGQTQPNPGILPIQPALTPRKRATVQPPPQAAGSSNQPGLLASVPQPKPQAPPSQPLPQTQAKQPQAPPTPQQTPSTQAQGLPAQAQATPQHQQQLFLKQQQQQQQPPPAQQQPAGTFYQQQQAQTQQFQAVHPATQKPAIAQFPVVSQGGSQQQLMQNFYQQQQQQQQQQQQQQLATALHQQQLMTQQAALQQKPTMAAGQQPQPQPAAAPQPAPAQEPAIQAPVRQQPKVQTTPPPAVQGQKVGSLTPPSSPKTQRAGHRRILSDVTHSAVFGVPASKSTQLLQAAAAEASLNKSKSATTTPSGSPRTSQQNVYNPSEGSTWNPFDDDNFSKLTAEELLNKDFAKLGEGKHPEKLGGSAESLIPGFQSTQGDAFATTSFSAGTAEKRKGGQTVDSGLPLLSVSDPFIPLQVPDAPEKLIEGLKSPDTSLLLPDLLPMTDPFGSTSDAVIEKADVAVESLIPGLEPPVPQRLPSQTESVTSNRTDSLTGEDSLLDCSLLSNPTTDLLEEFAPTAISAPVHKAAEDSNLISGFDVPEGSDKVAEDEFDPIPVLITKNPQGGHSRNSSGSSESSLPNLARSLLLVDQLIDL
Mitogen-activated protein kinase 7, sequence (Q13164 whole entry): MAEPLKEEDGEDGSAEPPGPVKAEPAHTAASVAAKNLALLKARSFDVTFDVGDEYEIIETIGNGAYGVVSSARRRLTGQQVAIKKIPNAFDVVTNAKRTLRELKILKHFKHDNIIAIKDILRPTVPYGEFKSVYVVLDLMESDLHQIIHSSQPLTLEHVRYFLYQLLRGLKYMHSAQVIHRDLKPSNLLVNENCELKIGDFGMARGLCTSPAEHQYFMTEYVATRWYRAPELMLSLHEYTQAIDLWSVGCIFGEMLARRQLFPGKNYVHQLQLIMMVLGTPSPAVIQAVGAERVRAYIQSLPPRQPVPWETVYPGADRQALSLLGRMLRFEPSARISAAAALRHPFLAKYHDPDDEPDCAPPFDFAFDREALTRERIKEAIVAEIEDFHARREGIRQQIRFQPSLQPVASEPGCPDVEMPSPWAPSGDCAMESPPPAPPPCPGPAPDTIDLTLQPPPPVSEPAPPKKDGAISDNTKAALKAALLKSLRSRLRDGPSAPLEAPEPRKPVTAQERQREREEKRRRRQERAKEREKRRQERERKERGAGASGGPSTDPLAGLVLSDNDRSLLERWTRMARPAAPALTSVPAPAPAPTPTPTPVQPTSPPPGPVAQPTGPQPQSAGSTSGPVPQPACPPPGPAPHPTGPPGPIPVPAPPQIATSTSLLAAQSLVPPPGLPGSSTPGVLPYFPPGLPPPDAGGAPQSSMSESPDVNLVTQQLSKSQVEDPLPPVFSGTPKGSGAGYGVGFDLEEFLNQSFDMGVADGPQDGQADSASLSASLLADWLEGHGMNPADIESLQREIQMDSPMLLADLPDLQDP
G protein-coupled receptor kinase 6, sequence (P43250 whole entry): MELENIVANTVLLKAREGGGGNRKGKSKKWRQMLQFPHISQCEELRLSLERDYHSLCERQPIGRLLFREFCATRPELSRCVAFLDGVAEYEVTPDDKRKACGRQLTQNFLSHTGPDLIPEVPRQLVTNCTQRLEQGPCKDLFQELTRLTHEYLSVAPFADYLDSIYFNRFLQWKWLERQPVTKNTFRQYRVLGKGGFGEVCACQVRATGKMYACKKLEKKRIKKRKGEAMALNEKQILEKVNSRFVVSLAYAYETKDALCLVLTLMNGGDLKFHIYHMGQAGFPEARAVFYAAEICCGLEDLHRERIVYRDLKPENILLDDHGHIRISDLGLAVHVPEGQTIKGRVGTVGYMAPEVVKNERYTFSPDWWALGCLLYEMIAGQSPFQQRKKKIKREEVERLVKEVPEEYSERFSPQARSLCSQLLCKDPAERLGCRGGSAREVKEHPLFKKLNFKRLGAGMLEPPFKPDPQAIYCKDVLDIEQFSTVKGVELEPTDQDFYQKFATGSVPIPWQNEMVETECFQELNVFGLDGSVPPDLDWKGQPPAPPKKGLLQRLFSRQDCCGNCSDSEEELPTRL
Tyrosine-protein kinase Lyn, sequence (P07948 whole entry): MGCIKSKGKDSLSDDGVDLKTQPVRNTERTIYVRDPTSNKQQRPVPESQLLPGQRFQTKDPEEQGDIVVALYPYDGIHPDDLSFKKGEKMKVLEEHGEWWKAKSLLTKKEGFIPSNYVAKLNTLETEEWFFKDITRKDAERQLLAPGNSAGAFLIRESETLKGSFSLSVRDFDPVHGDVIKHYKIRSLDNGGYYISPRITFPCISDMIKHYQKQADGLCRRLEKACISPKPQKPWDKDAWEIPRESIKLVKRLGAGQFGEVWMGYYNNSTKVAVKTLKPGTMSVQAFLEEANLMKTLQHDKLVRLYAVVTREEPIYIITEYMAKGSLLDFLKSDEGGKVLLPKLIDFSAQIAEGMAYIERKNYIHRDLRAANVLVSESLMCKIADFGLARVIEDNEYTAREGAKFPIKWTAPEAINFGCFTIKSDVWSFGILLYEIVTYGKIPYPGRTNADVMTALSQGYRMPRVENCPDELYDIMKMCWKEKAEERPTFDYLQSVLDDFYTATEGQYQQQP

CO[C@H]1C[C@@H]2CC[C@@H](C)[C@@](O)(O2)C(=O)C(=O)N2CCCC[C@H]2C(=O)O[C@H]([C@H](C)C[C@@H]2CC[C@@H](O)[C@H](OC)C2)CC(=O)[C@H](C)/C=C(\C)[C@@H](O)[C@@H](OC)C(=O)[C@H](C)C[C@H](C)/C=C/C=C/C=C/1C [SIROLIMUS]
Kd [1]: > 30 µM (inactive)
Kd [2]: > 30 µM (inactive)
Kd [3]: > 30 µM (inactive)
Kd [4]: > 30 µM (inactive)
Kd [5]: > 30 µM (inactive)
Kd [6]: > 30 µM (inactive)
Kd [7]: > 30 µM (inactive)
Kd [8]: > 30 µM (inactive)

CCS(=O)(=O)c1cccc(-c2cc(C(=O)NC3CCN(C)CC3)c(C)c3[nH]c4ncc(C)cc4c23)c1 [TAK-901]
Kd [1]: 0.249 µM (active)
Kd [2]: > 30 µM (inactive)
Kd [3]: > 30 µM (inactive)
Kd [4]: > 30 µM (inactive)
Kd [5]: 0.357 µM (active)
Kd [6]: > 30 µM (inactive)
Kd [7]: 1.19 µM
Kd [8]: > 30 µM (inactive)

CO[C@H]1C[C@@H]2CC[C@@H](C)[C@@](O)(O2)C(=O)C(=O)N2CCCC[C@H]2C(=O)O[C@H]([C@H](C)C[C@@H]2CC[C@@H](OC(=O)C(C)(CO)CO)[C@H](OC)C2)CC(=O)[C@H](C)/C=C(\C)[C@@H](O)[C@@H](OC)C(=O)[C@H](C)C[C@H](C)/C=C/C=C/C=C/1C [TEMSIROLIMUS]
Kd [1]: > 30 µM (inactive)
Kd [2]: > 30 µM (inactive)
Kd [3]: > 30 µM (inactive)
Kd [4]: > 30 µM (inactive)
Kd [5]: > 30 µM (inactive)
Kd [6]: > 30 µM (inactive)
Kd [7]: > 30 µM (inactive)
Kd [8]: > 30 µM (inactive)

COc1cc2c(Nc3ccc(Cl)c(Cl)c3F)ncnc2cc1OC[C@@H]1C[C@@H]2CN(C)C[C@@H]2C1 [TESEVATINIB]
Kd [1]: > 30 µM (inactive)
Kd [2]: > 30 µM (inactive)
Kd [3]: > 30 µM (inactive)
Kd [4]: > 30 µM (inactive)
Kd [5]: 1.13 µM (active)
Kd [6]: > 30 µM (inactive)
Kd [7]: > 30 µM (inactive)
Kd [8]: > 30 µM (inactive)

O=C(Cc1ccc(-c2ccc(OCCN3CCOCC3)cc2)cn1)NCc1ccccc1 [TIRBANIBULIN]
Kd [1]: > 30 µM (inactive)
Kd [2]: > 30 µM (inactive)
Kd [3]: > 30 µM (inactive)
Kd [4]: > 30 µM (inactive)
Kd [5]: > 30 µM (inactive)
Kd [6]: > 30 µM (inactive)
Kd [7]: > 30 µM (inactive)
Kd [8]: > 30 µM (inactive)

O=C1NC(=O)[C@@H](c2cn3c4c(cccc24)CCC3)[C@@H]1c1c[nH]c2ccccc12 [TIVANTINIB]
Kd [1]: > 30 µM (inactive)
Kd [2]: > 30 µM (inactive)
Kd [3]: > 30 µM (inactive)
Kd [4]: > 30 µM (inactive)
Kd [5]: > 30 µM (inactive)
Kd [6]: > 30 µM (inactive)
Kd [7]: > 30 µM (inactive)
Kd [8]: > 30 µM (inactive)

Cc1cc(Nc2ncnc3ccc(NC4=NC(C)(C)CO4)cc23)ccc1Oc1ccn2ncnc2c1 [TUCATINIB]
Kd [1]: > 30 µM (inactive)
Kd [2]: > 30 µM (inactive)
Kd [3]: > 30 µM (inactive)
Kd [4]: > 30 µM (inactive)
Kd [5]: > 30 µM (inactive)
Kd [6]: > 30 µM (inactive)
Kd [7]: > 30 µM (inactive)
Kd [8]: > 30 µM (inactive)

CC(C)c1cc(CNc2nc(Nc3cc(C4CC4)[nH]n3)cc(N3CCN(C)CC3)n2)on1 [XL-228]
Kd [1]: 0.005 µM (active)
Kd [2]: > 30 µM (inactive)
Kd [3]: 0.138 µM (active)
Kd [4]: > 30 µM (inactive)
Kd [5]: 1.33 µM (active)
Kd [6]: > 30 µM (inactive)
Kd [7]: > 30 µM (inactive)
Kd [8]: > 30 µM (inactive)

C[C@@H](N)c1ccc(C(=O)Nc2ccnc3[nH]ccc23)cc1 [Y-39983]
Kd [1]: > 30 µM (inactive)
Kd [2]: > 30 µM (inactive)
Kd [3]: 0.122 µM (active)
Kd [4]: 50.5 µM (active)
Kd [5]: > 30 µM (inactive)
Kd [6]: > 30 µM (inactive)
Kd [7]: > 30 µM (inactive)
Kd [8]: > 30 µM (inactive)

CN1C/C=C/CCOc2cccc(c2)-c2ccnc(n2)Nc2cccc(c2)C1 [ZOTIRACICLIB]
Kd [1]: > 30 µM (inactive)
Kd [2]: > 30 µM (inactive)
Kd [3]: > 30 µM (inactive)
Kd [4]: > 30 µM (inactive)
Kd [5]: > 30 µM (inactive)
Kd [6]: > 30 µM (inactive)
Kd [7]: > 30 µM (inactive)
Kd [8]: 1.07 µM (active)
